Key:
TAC mice [1] = experiment: TAC mice, 6-week minipump treatment: echocardiography; format: in vivo; conditions: in words
TAC mice [2] = experiment: TAC mice, 6-week minipump treatment: cardiac fibrosis, Masson's trichrome; format: in vivo; conditions: 6 weeks, TMZ 6, NA 2.4, CV-8814 7.5, CV-8972 10 mg/kg/day, TAC control 10.7±1
TAC mice [3] = experiment: TAC mice, 6-week minipump treatment: left ventricular pressure by Mikro-tip catheter; format: in vivo; conditions: 6 weeks, CV-8972 10 mg/kg/day, TAC control −5697±417
TAC mice [4] = experiment: TAC mice, 6-week minipump treatment: heart weight and heart weight/body weight; format: in vivo; conditions: in words, 6 weeks, NA 2.4 mg/kg/day
[5] = system: isolated hearts after ischemia-reperfusion; experiment: Ischemia-reperfusion (IR), isolated hearts (Langendorff): cardiac function (left ventricular pressure); design: species or system mice; conditions: in words; TMZ 20 μM; TNF 2 μM each; TNS 20 μM each
Protocol: FIG. 38 is a schematic of the ischemia-reperfusion (IR) method used to analyze the effects of selected compositions on coronary flow, cardiac function, and infarct size. […] At 20 minutes, ischemia was induced, and coronary flow was analyzed. At 50 minutes, reperfusion was initiated to restore blood flow. At 170 minutes, coronary flow and cardiac function was analyzed, and then the hearts were preserved, sectioned, and infarct size was measured by triphenyltetrazolium chloride (TTC) staining.

[6] = to the end of the study (6 weeks)

COc1ccc(CN2CCN(CCO)CC2)c(OC)c1OC [CV-8814, 2-(4-(2,3,4-trimethoxybenzyl)piperazin-1-yl)ethan-1-ol]
EF (TAC mice [1]; 3-weeks after TAC): significantly increased
EF (TAC mice [1]; [6]): protective effect was sustained
cardiac fibrosis (fibrotic area to whole heart tissue area) (TAC mice [2]): 6.6±0.6%

COc1ccc(CN2CCN(CCOC(=O)c3cccnc3)CC2)c(OC)c1OC [CV-8972, 2-(4-(2,3,4-trimethoxybenzyl)piperazin-1-yl)ethyl nicotinate]
−dp/dtm (TAC mice [3]): −4126±339 mm Hg/sec
EF (TAC mice [1]; 3-weeks after TAC): significantly increased
EF (TAC mice [1]; [6]): protective effect was sustained

O=C(O)c1cccnc1 [NA, nicotinic acid, reference compound]
effect on cardiac remodeling (TAC mice [4]): no significant effect on cardiac remodeling
IVSd (TAC mice [1]; TAC mice, NA 2.4 mg/kg/day): decreased IVSd
LV mass (TAC mice [1]; TAC mice, NA 2.4 mg/kg/day): no effect on LV mass

COc1ccc(CN2CCNCC2)c(OC)c1OC [TMZ, trimetazidine]
cardiac function (LVDP) after IR [5]: prevented a decline in cardiac function
